Like-named read-outs stand apart in the source and are kept apart here.

Results on 4 compounds are retold here after PMC5466632, “Clinical on-site monitoring of ß-lactam antibiotics for a personalized antibiotherapy” (Scientific Reports, 2017).

The target of assay [1] is T1, PBP3 (penicillin-binding protein 3, PBP3*) (Streptococcus pneumoniae, UniProt Q8DQ99).
T1 construct: gene dacA; soluble truncated PBP3 (Gly15-Lys394), N-terminal hexa-His tag kept, synthetic gene, expressed in E. coli BL21*(DE3) pLysS, Ni-NTA purified; captured on anti-His antibody
T1 sequence (Q8DQ99 15-394): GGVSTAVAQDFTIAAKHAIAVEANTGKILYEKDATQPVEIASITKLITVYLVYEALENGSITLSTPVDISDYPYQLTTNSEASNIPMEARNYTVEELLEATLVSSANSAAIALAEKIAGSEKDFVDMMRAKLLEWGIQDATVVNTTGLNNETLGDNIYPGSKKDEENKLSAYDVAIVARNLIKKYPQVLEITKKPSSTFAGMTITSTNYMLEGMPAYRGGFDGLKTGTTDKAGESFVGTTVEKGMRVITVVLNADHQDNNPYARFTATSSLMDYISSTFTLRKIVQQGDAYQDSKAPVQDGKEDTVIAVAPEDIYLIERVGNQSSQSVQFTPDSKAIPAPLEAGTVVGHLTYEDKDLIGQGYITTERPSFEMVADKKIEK
Nature of the assay: competitive enzyme-linked assay on electrochemical microfluidic chip, avidin-glucose oxidase readout. The text has this:
competitive enzyme-linked assay on electrochemical microfluidic chip, avidin-glucose oxidase readout on PBP3 (penicillin-binding protein 3, PBP3*)

Assay [2] deals with T1, PBP3 (penicillin-binding protein 3, PBP3*). Nature of the assay: competitive enzyme-linked assay on microtiter plate, optical readout. The conditions noted are these: competition with ampicillin-biotin conjugate.

On to `Cc1nnc(SCC2=C(C(=O)O)N3C(=O)[C@@H](NC(=O)Cn4cnnn4)[C@H]3SC2)s1` [cefazolin], for which, in assay [1] (read-out: Cefazolin (converted)), the IC50 was 19.2 nM.

With `CCN1CCN(C(=O)N[C@@H](C(=O)N[C@@H]2C(=O)N3[C@@H]2SC(C)(C)[C@@H]3C(=O)O)c2ccccc2)C(=O)C1=O` [piperacillin], the IC50 in assay [1] (read-out: Piperacillin (converted)) was 35.5 nM.

Turning to `CO/N=C(\C(=O)N[C@@H]1C(=O)N2C(C(=O)O)=C(COC(N)=O)CS[C@H]12)c1ccco1` [cefuroxime], the IC50 in assay [1] (read-out: Cefuroxime (converted)) was 26.1 nM.

With `CC1(C)S[C@@H]2[C@H](NC(=O)[C@H](N)c3ccccc3)C(=O)N2[C@H]1C(=O)O` [ampicillin], the “competitive enzyme-linked assay on microtiter plate, optical readout” value in assay [2] is on record as “confirmed via the optical quantification of ampicillin on a microtiter plate”.
